The values that follow are results of earlier work, collected in patent US20070212388A1, “COMPOSITIONS COMPRISING POROUS ARTICLES AND USES IN IMPLANTABLE MEDICAL DEVICES” (Sahajanand Medical Technologies Pvt. Ltd., priority 2006, published 2007).

The conditions of this data set: for solubility in water: general statement, no test described.

With `O=c1c(-c2ccc(O)cc2)coc2cc(O)cc(O)c12` [Genistein, 5,7-dihydroxy-3-(4-hydroxyphenyl)-4H-1-benzopyran-4-one], the solubility in water result is recorded as “practically insoluble in water”. On to `O=c1c(-c2ccc(O)cc2)coc2cc(O[C@@H]3O[C@H](CO)[C@@H](O)[C@H](O)[C@H]3O)cc(O)c12` [Genistin], for which the “water solubility relative to genistein” value (compared with genistein) is “greater water solubility than genistein”. On to `O=c1c(O)c(-c2ccc(O)c(O)c2)oc2cc(O)cc(O)c12` [Quercetin, 2-(3,4-dihydroxyphenyl)-3,5,7-trihydroxy-4H-1-benzopyran-4-one], for which the solubility in water entry is recorded as “practically insoluble in water”.
